This is an account of results in US20220280422A1 (Innovation for Success, LLC, priority 2021, published 2022).

Data set [1] in a line: Recrystallization of melatonin on cooling in food-grade solvents. Particulars: dissolved by heating then cooled. Format: physicochemical. The text has this: During research of the dissolvable strip 100, several food-grade solvents were identified having a sufficient solubility of melatonin including glycerin, ethanol, oleic acid, and propylene glycol. When heated, each of these solvents is capable of dissolving crystalized melatonin. […] Whereas, as noted above, glycerin incorporates well into the strip 100 at levels up to about 2% to 5%, is compatible with the lipid shell 124, and prevents recrystallization of the melatonin contained by the lipid shell 124.

Data set [2] is described as follows: Dissolution of melatonin in liquid glycerin. It is filed as physicochemical. The note with it: at least 250 mg melatonin per milliliter glycerin. How it is done: At block 304, the method 300 includes combining melatonin with liquid glycerin, which is also termed glycerol and/or glycerine. The melatonin may be dry and/or powered, and is typically in a crystalized state. As noted above, in an exemplary embodiment, at least 250 mg of melatonin is added per milliliter of glycerin.
Next, at block 308 of the method 300, the melatonin and glycerin mixture is heated to approximately 76.6° C. (170° F.). Moreover, in some embodiments, the melatonin and glycerin mixture is stirred during the heating process.
As shown in block 404, first the method 400 includes mixing melatonin with liquid glycerin. The melatonin may be dry and/or powered, and is typically in a crystalized state. As noted above, in an exemplary embodiment, at least 250 mg of melatonin is added per milliliter of glycerin.
Next, at block 408 of the method 400, the melatonin and glycerin mixture is heated to approximately 76.6° C. (170° F.). Moreover, in some embodiments, the melatonin and glycerin mixture is stirred during the heating process.

The conditions of data set [3]: cited from earlier work.
The next data set deals with T1, CYP1A2 (Homo sapiens, UniProt P05177).
T1 sequence (P05177 1-516): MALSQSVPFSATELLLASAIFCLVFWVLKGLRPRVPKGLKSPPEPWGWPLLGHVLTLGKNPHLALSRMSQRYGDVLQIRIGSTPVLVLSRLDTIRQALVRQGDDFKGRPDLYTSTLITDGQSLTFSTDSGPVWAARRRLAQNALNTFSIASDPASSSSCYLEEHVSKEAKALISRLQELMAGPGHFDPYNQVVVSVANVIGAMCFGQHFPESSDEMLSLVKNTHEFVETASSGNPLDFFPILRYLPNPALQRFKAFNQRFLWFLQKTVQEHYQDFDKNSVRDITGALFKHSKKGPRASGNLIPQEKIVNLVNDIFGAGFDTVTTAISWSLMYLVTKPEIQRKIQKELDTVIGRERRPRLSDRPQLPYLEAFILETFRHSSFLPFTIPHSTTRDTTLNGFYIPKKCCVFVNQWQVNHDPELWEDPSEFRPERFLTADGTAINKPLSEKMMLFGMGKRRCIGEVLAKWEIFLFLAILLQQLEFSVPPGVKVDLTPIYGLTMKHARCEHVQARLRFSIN
Particulars: in vivo; cited from earlier work.

The conditions of data set [4]: taken orally in pill form or capsule form; cited from earlier work.

Turning to `COc1ccc2[nH]cc(CCNC(C)=O)c2c1` [melatonin, N-acetyl-5-methoxy tryptamine], the “recrystallization of melatonin when cooled” value in data set [1] (solvent ethanol) is recorded as “recrystallized”; in data set [1] (solvent liquid glycerin), “recrystallized in each of the solvents except for the liquid glycerin”; in data set [1] (solvent oleic acid), “recrystallized”; in data set [1] (solvent propylene glycol), “recrystallized”. Besides, the “dissolution of melatonin in glycerin” value is “all of the melatonin dissolves” in data set [2] (heated to approximately 76.6° C. and stirred); “only a portion of the melatonin dissolves” in data set [2] (room temperature (25° C.)). Moreover, the solubility in water entry in data set [3] is on record as “only slightly soluble in water”. Further, the “melatonin in the blood removed during each pass through the liver” value at CYP1A2 was 30%-50%. Further, the “melatonin removed from the bloodstream by liver and kidneys” value at CYP1A2 was 30-50%.

In the case of `COc1ccc2[nH]cc(CCNC(C)=O)c2c1` [non-solubilized melatonin], in data set [4], the “fraction absorbed into the body” value was “about 15%”.
